Reference: patent US20250011311A1, “AMIDO HETEROAROMATIC COMPOUNDS” (AstraZeneca AB, priority 2022, published 2025)

Tests used:
[1] = biological target: recombinant 17bHSD13 (N2-K300) (Homo sapiens (Human), UniProt Q7Z5P4); test: In Vitro 17bHSD13 Enzyme Assay; type: biochemical; details: 80 nM 17bHSD13, 0.5 mM NAD, 20 μM Estradiol, 2.5 h; estradiol to estrone by LC-MS/MS
Method in brief: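 Human 17bHSD13 (N2-K300, 80 nM) with 0.5 mM NAD, 20 μM estradiol and varied compound in 50 mM Tris-Cl pH 7.4, 5 mM EDTA, 0.01% DDM. Estrone/(estrone+estradiol) ratio read by LC-MS/MS (APCI, positive MRM). Inhibition normalised to DMSO and a known-inhibitor control; IC50 from curve fit.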

[2] = biological target: over expressed HSD17β13 in HEK293S cells (Homo sapiens (Human), UniProt Q7Z5P4); test: In Vitro 17bHSD13 Cell Assay; type: cell-based; details: HEK293S cells over expressing HSD17β13; estradiol to estrone conversion, 18 h, LC-MS/MS; read-out: 17bHSD1713 Cell assay IC50
Method in brief: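 HEK293S cells overexpressing HSD17β13 convert estradiol to estrone; product read by LC-MS/MS (APCI, positive MRM) as AUC ratio estrone/(estrone+estradiol). Effect normalised between DMSO and maximal inhibition by a known inhibitor control; IC50 from curve fit.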

[3] = system: human hepatocytes; test: Assay A: Metabolic Stability in Human Hepatocytes; type: in vitro ADME; details: cryopreserved human hepatocytes, 10^6 viable cells/mL, 1 μM compound, 37° C.
Protocol: Assay A: Metabolic Stability in Human Hepatocytes
Hepatocyte metabolic stability was determined in accordance with the method described by Jacobson et al., An optimized automated assay for determination of metabolic stability using hepatocytes: assay validation, variance component analysis, and in vivo relevance. Assay Drug Dev Technol 2007, 5 (3), 403-415. DOI: 10.1089/adt.2007.059, which is incorporated herein by reference. Cryopreserved hepatocytes at a concentration of 10^6 viable cells/mL were used. After thawing, hepatocytes were incubated for 10 min to warm to 37° C. and test compounds, dissolved in acetonitrile, were added to give a final concentration of 1 μM. At 0.5, 5, 15, 30, 45, 60, 80, 100 and 120 min, the incubation system was mixed and 20 μL aliquots were transferred at each time point to wells in a separate plate filled with 80 μL MeCN to stop the reaction. The quenching plate was then vortexed followed by centrifugation, and supernatants were analyzed by LC-MS/MS. Peak areas were determined from extracted ion chromatograms, and the in vitro intrinsic clearance (in vitro CLint, in μL/min/10^6 cells) of parent compound was calculated from the slope in the regression analysis of the natural logarithm of parent concentration vs time curve.

[4] = biological target: CYP2C9 (Homo sapiens (Human), UniProt P11712); test: Assay B: Cytochrome P450 Inhibition 2C9
[5] = biological target: recombinant 17bHSD4 (M1-N311) (Homo sapiens (Human), UniProt P51659); test: In Vitro 17bHSD4 Enzyme Assay; type: biochemical; details: 40 nM 17bHSD4, 0.125 mM NAD, 15 μM Estradiol, 1.5 h; NADH fluorescence; read-out: 17HSD17b4 Enzyme assay IC50
Protocol: In Vitro 17bHSD4 Enzyme Assay
10 concentration of compounds (0.2 μl) in DMSO was added to GREINER FLUOTRAC 200 384 well plate (781076) using ECHO dispensing (BECKMAN COULTER). 80 nl of 10 mM Estradiol (SIGMA, E8875) was added using Echo dispensing. The enzyme reaction was initiated by addition, using MULTIDROP COMBI dispensing (THERMO FISHER), of 40 μl of a mix containing recombinant 17bHSD4 (M1-N311) and NAD. Final assay conditions were 40 nM of 17bHSD4, 0.125 mM of NAD, 15 μM Estradiol and various concentrations of compound in buffer (5 mM EDTA (TEKNOVA E0306), 0.01% DDM (AFFYMETRIX D310) in 50 mM Tris-Cl, pH 7.4). After each addition plates were centrifuged for 1 min at 150×g (EPPENDORF, 5810R, A-4-81). NADH formation was measured by fluorescence intensity (FI) (Ex360/Em460) at time zero (to) and at 1.5 h (t1) in a PHERASTAR FSX (BMG LABTECH). FI for each sample was calculated as FI at t1 minus FI at t0.
(§1) […] […] was used for curve fitting and calculation of IC50 values.
(§2) Compound effect was calculated with the formula below;
(§3) where X represents the effect in the presence of test compound, min is DMSO and max is the maximum inhibition of enzyme using a known inhibitor as control.

[6] = biological target: over expressed HSD17β9 in HEK293S cells (Homo sapiens (Human), UniProt Q92781); test: In Vitro 17bHSD9 Cell Assay; type: cell-based; details: HEK293S cells over expressing HSD17β9; retinol to retinal conversion, 18 h, LC-MS/MS; read-out: 17bHSD9 Cell assay IC50
Protocol: In Vitro 17bHSD9 Cell Assay
Inhibition of 17bHSD9 was measured in a cell-based assay with over expressed HSD17β9 in HEK293S cells, measuring retinol to retinal conversion by LCMS/MS.
Cells were plated in 384 well plates (GREINER CELL culture plate 384w black/clear Poly-D-Lysine) at 10 K c/w in 30 μl of culture media (DMEM with GLUTAMAX plus 10% FBS). […] After 18 h of cell culturing for 20 μl of media was transferred using BRAVO dispensing robot (AGILENT) to a GREINER PP 384 well plate (781280) and 40 μl of 50% acetonitrile was added. Samples were analyzed using LC-MS/MS.
SCIEX LC-MS/MS system: Sample was injected with CTC analytical injector, SHIMATZU LC pumps LC20 and analysed on the SCIEX API 5000 LCMSMS system with the following settings. Samples were chromatographed on a WATERS, symmetry, C8, 3.5 μm, 2.1×50 mm) column at constant flow rate of 0.5 mL/min. The mobile phases consists of A (water with 0.2% formic acid) and B (acetonitrile with 0.2% formic acid). The LC gradient profile is as follows: 50% B during 0 to 0.1 min, a linear increase to 100% B during 0.1 to 0.8 min, hold at 100% B during 0.8 to 1.5 min then back to 50% B from 1.5 to 1.6 min and hold during run time. The run time was 2 min with retention times of approximately 1.54 and 1.62 min for Retinol and Retinal, respectively. Detection was performed on a API 5000 LC/MS/MS system with a triple quadrupole mass spectrometer, a TURBO V ion source, in multiple reaction monitoring (MRM) mode at positive polarity with ESI probe. The MRM pairs were m/z 269.3 to m/z 93.0 and m/z 285.2 to 161.0. for Retinol and Retinal, respectively. The dwell times were 100 ms for each transition and a depolarization and collision energy of 50 and 25, respectively. Data from MS signals was using area under curve (AUC). Ratio=Retinal/(Retinal+Retinol).
as §1, §2, §3

Sequence of over expressed HSD17β9 in HEK293S cells (Q92781 whole entry): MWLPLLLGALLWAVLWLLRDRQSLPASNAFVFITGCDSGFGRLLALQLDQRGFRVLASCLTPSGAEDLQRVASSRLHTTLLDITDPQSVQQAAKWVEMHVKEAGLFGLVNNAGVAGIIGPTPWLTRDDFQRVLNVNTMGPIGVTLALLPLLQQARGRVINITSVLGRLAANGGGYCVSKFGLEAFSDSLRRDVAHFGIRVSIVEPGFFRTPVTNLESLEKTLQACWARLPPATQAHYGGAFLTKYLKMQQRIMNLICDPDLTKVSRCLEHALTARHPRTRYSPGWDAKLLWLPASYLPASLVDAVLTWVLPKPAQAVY
Sequence of recombinant 17bHSD4 (M1-N311) (P51659 1-311): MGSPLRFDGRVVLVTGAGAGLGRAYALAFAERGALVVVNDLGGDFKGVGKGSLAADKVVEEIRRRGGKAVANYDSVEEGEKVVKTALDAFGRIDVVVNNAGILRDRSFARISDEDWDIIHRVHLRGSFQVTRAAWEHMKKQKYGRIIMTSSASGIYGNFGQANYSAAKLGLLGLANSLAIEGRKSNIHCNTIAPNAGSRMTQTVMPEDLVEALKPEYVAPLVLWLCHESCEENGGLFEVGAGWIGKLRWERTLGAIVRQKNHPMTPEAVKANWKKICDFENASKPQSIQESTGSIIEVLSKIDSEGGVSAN
Sequence of over expressed HSD17β13 in HEK293S cells (Q7Z5P4 20-300): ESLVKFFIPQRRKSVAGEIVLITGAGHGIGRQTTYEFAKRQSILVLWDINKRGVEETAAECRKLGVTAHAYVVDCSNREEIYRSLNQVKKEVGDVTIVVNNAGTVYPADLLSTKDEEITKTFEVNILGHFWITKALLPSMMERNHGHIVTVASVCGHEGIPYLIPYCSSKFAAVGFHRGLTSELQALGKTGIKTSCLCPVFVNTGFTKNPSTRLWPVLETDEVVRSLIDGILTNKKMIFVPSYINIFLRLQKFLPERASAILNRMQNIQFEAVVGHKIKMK
Sequence of recombinant 17bHSD13 (N2-K300) (Q7Z5P4 2-300): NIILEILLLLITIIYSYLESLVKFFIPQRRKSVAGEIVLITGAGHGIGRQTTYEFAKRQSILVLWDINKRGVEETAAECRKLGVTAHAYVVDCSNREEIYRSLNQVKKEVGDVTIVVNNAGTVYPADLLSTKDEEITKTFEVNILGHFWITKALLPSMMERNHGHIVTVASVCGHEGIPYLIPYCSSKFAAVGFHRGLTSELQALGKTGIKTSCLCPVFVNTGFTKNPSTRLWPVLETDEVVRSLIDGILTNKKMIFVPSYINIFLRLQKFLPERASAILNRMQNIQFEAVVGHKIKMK
Sequence of CYP2C9 (P11712 whole entry): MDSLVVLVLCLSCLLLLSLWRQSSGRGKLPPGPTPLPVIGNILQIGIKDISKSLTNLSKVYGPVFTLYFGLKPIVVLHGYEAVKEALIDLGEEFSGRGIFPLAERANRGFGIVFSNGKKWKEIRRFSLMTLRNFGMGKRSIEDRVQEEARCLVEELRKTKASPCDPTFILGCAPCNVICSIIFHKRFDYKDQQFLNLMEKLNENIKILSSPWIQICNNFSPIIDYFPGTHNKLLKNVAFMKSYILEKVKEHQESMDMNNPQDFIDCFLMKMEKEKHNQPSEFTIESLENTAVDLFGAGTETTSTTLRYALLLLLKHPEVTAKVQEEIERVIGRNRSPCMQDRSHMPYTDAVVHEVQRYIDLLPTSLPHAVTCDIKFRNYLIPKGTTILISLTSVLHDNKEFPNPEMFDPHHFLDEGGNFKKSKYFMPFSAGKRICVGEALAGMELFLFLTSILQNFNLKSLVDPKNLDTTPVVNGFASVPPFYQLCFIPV

Row | SMILES | IC50 [1] | IC50 [2] | Assay A: Human Heps Met Clint GMean CLint (μl/min/1E6) [3] | IC50 [4] | IC50 [5] | IC50 [6]
1 | COc1ccc(C(C)N(C)C(=O)c2noc(-c3cc(F)c(F)c(O)c3F)n2)cc1 (stereo not shown) [Example 78, N-(1-(4-Methoxyphenyl)ethyl)-N-methyl-5-(2,4,5-trifluoro-3-hydroxyphenyl)-1,2,4-oxadiazole-3-carboxamide] | 127 nM | 800 nM | 28.2 μl/min/1E6 | 3000 nM | – | –
2 | N#Cc1c(C(=O)N2CC(F)(C3CC3)C2)noc1-c1cc(F)c(F)c(O)c1F [Example 27, 3-(3-Cyclopropyl-3-fluoroazetidine-1-carbonyl)-5-(2,4,5-trifluoro-3-hydroxyphenyl)isoxazole-4-carbonitrile] | 382 nM | 4090 nM | 14.0 μl/min/1E6 | 3100 nM | – | –
3 | O=C(c1noc(-c2cc(F)c(F)c(O)c2F)n1)N1CCC(c2ccccc2)C1 (stereo not shown) [Example 96, (3-Phenylpyrrolidin-1-yl)(5-(2,4,5-trifluoro-3-hydroxyphenyl)-1,2,4-oxadiazol-3-yl)methanone] | 47 nM | 170 nM | – | 1300 nM | 18000 nM | 17300 nM
4 | CN(C(=O)c1cc(-c2ccc(F)c(O)c2)no1)c1ccnn1C1CCCCC1 [Example 5, N-(1-Cyclohexyl-1H-pyrazol-5-yl)-3-(4-fluoro-3-hydroxyphenyl)-N-methylisoxazole-5-carboxamide] | 93 nM | 2610 nM | – | 3000 nM | – | > 50000 nM
5 | O=C(c1noc(-c2cc(F)c(F)c(O)c2F)n1)N1CC[C@@H](c2ccc(Cl)cc2)C1 [Example 103, (S)-(3-(4-Chlorophenyl)pyrrolidin-1-yl)(5-(2,4,5-trifluoro-3-hydroxyphenyl)-1,2,4-oxadiazol-3-yl)methanone] | 26 nM | 530 nM | – | 800 nM | 6500 nM | 24900 nM
6 | CN(C(=O)c1cc(-c2ccc(F)c(O)c2)on1)c1ccnn1C1CCCCC1 [Example 7, N-(1-Cyclohexyl-1H-pyrazol-5-yl)-5-(4-fluoro-3-hydroxyphenyl)-N-methylisoxazole-3-carboxamide] | 83 nM | 5050 nM | – | 8400 nM | > 50000 nM | –
7 | O=C(c1cc(-c2cc(F)c(F)c(O)c2F)on1)N1CC[C@H](c2ccc(Cl)cc2)C1 [Example 8, (R)-(3-(4-Chlorophenyl)pyrrolidin-1-yl)(5-(2,4,5-trifluoro-3-hydroxyphenyl)isoxazol-3-yl)methanone] | 47 nM | 610 nM | – | – | 6700 nM | 25000 nM
8 | O=C(c1noc(-c2cc(F)c(F)c(O)c2F)n1)N1CCOCC1 [Example 39, Morpholino(5-(2,4,5-trifluoro-3-hydroxyphenyl)-1,2,4-oxadiazol-3-yl)methanone] | 1740 nM | 1480 nM | – | – | > 50000 nM | > 50000 nM
9 | O=C(c1noc(-c2cc(F)c(F)c(O)c2F)n1)N1CCOC2(CCCC2)C1 [Example 45, (6-Oxa-9-azaspiro[4.5]decan-9-yl)(5-(2,4,5-trifluoro-3-hydroxyphenyl)-1,2,4-oxadiazol-3-yl)methanone] | 466 nM | 510 nM | – | – | > 50000 nM | 4100 nM
10 | COc1ccc(OC2CCN(C(=O)c3noc(-c4cc(F)c(F)c(O)c4F)c3C#N)CC2)nc1 [Example 25, 3-(4-((5-Methoxypyridin-2-yl)oxy)piperidine-1-carbonyl)-5-(2,4,5-trifluoro-3-hydroxyphenyl)isoxazole-4-carbonitrile] | 288 nM | 820 nM | – | – | 24800 nM | 22700 nM
11 | C[C@@H]1COC[C@H](C)N1C(=O)c1noc(-c2cc(F)c(F)c(O)c2F)n1 [Example 36, ((3R,5S)-3,5-Dimethylmorpholino)(5-(2,4,5-trifluoro-3-hydroxyphenyl)-1,2,4-oxadiazol-3-yl)methanone] | 1030 nM | 1320 nM | – | – | > 50000 nM | > 50000 nM
12 | C[C@H]1CN(C(=O)c2noc(-c3cc(F)c(F)c(O)c3F)n2)C[C@H](C)O1 [Example 54, ((2S,6S)-2,6-Dimethylmorpholino)(5-(2,4,5-trifluoro-3-hydroxyphenyl)-1,2,4-oxadiazol-3-yl)methanone] | 392 nM | 150 nM | – | – | > 50000 nM | > 50000 nM
13 | O=C(Nc1ccnn1C1CCCCC1)c1cnc(-c2ccc(F)c(O)c2)o1 [Example 12, N-(1-Cyclohexyl-1H-pyrazol-5-yl)-2-(4-fluoro-3-hydroxyphenyl)oxazole-5-carboxamide] | 4340 nM | > 50000 nM | – | 21200 nM | – | –
14 | O=C(c1cc(-c2ccc(F)c(O)c2)no1)N1CCC(c2ccccc2)C1 (stereo not shown) [Example 6, (3-(4-Fluoro-3-hydroxyphenyl)isoxazol-5-yl)(3-phenylpyrrolidin-1-yl)methanone] | 41 nM | 980 nM | – | – | 89100 nM | > 50000 nM
15 | O=C(c1noc(-c2cc(F)c(F)c(O)c2F)n1)N1CCOC2(CCC2)C1 [Example 52, (5-Oxa-8-azaspiro[3.5]nonan-8-yl)(5-(2,4,5-trifluoro-3-hydroxyphenyl)-1,2,4-oxadiazol-3-yl)methanone] | 281 nM | 480 nM | – | – | 34600 nM | 1200 nM
